According to PMC9636434, “Discovery of small molecule agonists of the Relaxin Family Peptide Receptor 2” (Communications Biology, 2022):
Values joined by “and” are separate entries in the source; they are usually repeats but may differ in a detail not shown here. Equal entries are not always repeated.

Columns and labels:
Assay type in all cases: cell-based
RXFP2 = RXFP2 (Homo sapiens, UniProt Q8WXD0); assay: HTRF cAMP assay in HEK-RXFP2 cells (stably transfected; also primary HTS); design: FLAG (N); expressed in transfected cells; settings: Fig. 1a, initial hit and enantiomers
Chain of RXFP2 (Q8WXD0 whole entry): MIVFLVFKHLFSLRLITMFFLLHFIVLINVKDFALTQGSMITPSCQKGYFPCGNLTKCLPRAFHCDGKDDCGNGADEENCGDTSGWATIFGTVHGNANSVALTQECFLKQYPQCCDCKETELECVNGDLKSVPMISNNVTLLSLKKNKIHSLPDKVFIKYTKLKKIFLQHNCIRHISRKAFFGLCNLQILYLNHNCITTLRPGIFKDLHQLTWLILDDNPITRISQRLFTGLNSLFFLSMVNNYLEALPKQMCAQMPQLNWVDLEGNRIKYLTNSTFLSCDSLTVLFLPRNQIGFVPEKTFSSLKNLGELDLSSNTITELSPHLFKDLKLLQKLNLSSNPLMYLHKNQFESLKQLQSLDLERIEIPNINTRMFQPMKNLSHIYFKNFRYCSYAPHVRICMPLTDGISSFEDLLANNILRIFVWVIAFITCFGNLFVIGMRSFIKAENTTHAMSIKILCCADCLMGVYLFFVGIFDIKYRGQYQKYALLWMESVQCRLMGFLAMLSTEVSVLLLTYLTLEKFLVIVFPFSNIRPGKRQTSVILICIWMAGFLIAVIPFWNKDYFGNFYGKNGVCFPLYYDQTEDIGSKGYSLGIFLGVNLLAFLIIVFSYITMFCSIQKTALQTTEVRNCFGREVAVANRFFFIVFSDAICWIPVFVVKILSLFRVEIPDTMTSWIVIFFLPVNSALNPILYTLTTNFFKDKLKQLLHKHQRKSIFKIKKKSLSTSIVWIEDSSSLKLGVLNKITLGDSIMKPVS
Description: A quantitative high-throughput screening (HTS) of more than 80 K compounds of the NCATS/NIH diversity collection was performed at four concentrations in HEK293T cells stably expressing human RXFP2 to identify candidate agonists. A homogenous time resolved fluorescence (HTRF) assay was used to directly detect compound-induced cAMP accumulation, with forskolin or human recombinant INSL3 serving as positive controls. […] A confirmatory CRE-luciferase cAMP screen was used to eliminate any potential false positives due to assay detection artifacts (Supplementary Fig. 1a).
The cAMP response induced by the compounds was normalized to the cAMP response induced by 100 nM INSL3 as 100% efficacy and the cAMP response induced by DMSO vehicle as 0% efficacy. Emax and EC50 were calculated using four parameter nonlinear fit dose-response stimulation curves. […] Molecular weight (MW).
The HTRF Gs dynamic cAMP assay kit (CisBio, Bedford, MA) was used to measure intracellular cAMP accumulation in HEK293T cells (ATCC, Manassas, VA)[56]. […] The cell stock was verified mycoplasma free and authenticated by ATCC. Transient transfection was accomplished by treating cells in a 6-well plate with a mixture of 2 μg plasmid and 6 μL Lipofectamine 2000 (Invitrogen, Waltham, MA) per manufacturer’s protocol and incubating overnight. For cAMP measurement in 96-well format, HEK293T cells stably transfected with human RXFP2 (HEK-RXFP2), human RXFP1 (HEK-RXFP1), mouse Rxfp1 (HEK-Rxfp1) or transiently transfected with human RXFP1-RXFP2 chimeric receptors were seeded between 7500 and 30,000 cells per well, depending on cell line responsiveness, in serum-free DMEM medium and incubated overnight at 37 °C, 5% CO2. After 18 h, cells were treated with a titration of compound, 2 μM forskolin, or DMSO vehicle. Control wells were also treated with a titration of INSL3 (Phoenix Pharmaceuticals, Burlingame, CA) or human recombinant relaxin 2 (Peprotech, Cranbury, NJ). For the RXFP2 antagonist experiment, cells were co-treated with 0.28 μM compound or 30 nM INSL3 and a titration of the INSL3 B dimer antagonist[38],[39]. For the INSL3 allosteric modulation experiment, cells were co-treated with 0.025, 0.0025, or 0.00025 μM of compound and a titration of INSL3. Cells were incubated for 1 h at 37 °C, 5% CO2, and then kit cAMP-d2 and anti-cAMP antibody were added per manufacturer protocol. Plates were incubated for 1 h at room temperature and the signal was read on a CLARIOstar plate reader (BMG Labtech, Ortenberg, Germany) at 665 and 620 nm emission wavelengths.

human RXFP4 = target: T1, human RXFP4 (Homo sapiens, UniProt Q8TDU9); assay: GloSensor cAMP assay in RXFP4 transiently transfected HEK293T cells; settings: for RLU (cAMP, raw): RXFP4, 0.1 µM isoproterenol, replicates (1)-(4)
T1 construct: host or cells: HEK293T (transient)
T1 sequence (Q8TDU9 whole entry): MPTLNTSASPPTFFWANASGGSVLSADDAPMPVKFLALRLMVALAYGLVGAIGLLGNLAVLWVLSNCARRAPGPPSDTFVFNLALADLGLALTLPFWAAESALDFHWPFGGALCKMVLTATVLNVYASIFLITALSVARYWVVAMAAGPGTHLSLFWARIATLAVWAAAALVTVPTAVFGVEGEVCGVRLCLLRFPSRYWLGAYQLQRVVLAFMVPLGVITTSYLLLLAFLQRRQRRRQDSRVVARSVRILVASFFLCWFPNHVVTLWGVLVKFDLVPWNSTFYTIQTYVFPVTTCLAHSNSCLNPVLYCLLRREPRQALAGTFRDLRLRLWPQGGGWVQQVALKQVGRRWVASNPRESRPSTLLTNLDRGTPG

human RXFP3 = target: T2, human RXFP3 (Homo sapiens, UniProt Q9NSD7); assay: GloSensor cAMP assay in RXFP3 transiently transfected HEK293T cells; settings: for RLU (cAMP, raw): RXFP3, 0.1 µM isoproterenol, replicates (1)-(4)
T2 construct: host or cells: HEK293T (transient)
T2 sequence (Q9NSD7 1-469): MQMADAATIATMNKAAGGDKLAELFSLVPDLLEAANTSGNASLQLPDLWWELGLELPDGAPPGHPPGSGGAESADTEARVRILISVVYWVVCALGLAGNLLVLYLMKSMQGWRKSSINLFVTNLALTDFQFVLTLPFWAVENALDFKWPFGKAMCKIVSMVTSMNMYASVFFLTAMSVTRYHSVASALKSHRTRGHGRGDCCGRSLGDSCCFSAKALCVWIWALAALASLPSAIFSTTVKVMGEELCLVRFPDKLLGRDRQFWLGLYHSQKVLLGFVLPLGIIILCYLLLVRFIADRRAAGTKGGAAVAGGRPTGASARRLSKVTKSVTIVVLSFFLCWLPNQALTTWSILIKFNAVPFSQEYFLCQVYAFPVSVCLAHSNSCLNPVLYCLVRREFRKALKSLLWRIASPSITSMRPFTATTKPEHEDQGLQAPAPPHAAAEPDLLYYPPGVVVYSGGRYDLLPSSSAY

[1] = cAMP induced by 0.1 µM isoproterenol

O=C1Nc2ccc(-c3cccc(C(F)(F)F)c3)cc2C(=O)N2CCN(C(=O)COc3ccccc3)CC12 (centres unmarked) [compound 8685]
RXFP2 agonist activity in SAR scheme (Active / Inactive) (RXFP2): Active

O=C1Nc2ccc(-c3cccc(C(F)(F)F)c3)cc2C(=O)N2CCN(C(=O)COc3ccccc3)C[C@H]12 [compound 9940]
RXFP2 agonist activity in SAR scheme (Active / Inactive) (RXFP2): Inactive

O=C1Nc2ccc(-c3cccc(C(F)(F)F)c3)cc2C(=O)N2CCN(C(=O)COc3ccccc3)C[C@@H]12 [compound 9941]
RXFP2 agonist activity in SAR scheme (Active / Inactive) (RXFP2): Active

Relaxin 3 [reference compound]
RLU (cAMP, raw) (human RXFP4; Log [M] -6.48): 1291.4 RLU and 1273.39 RLU and 1346.81 RLU and 1344.73 RLU
RLU (cAMP, raw) (human RXFP4; Log [M] -7): 1098.17 RLU and 1299.02 RLU and 1204.83 RLU and 1290.02 RLU
RLU (cAMP, raw) (human RXFP4; Log [M] -7.48): 1677.86 RLU and 1738.12 RLU and 1419.53 RLU and 1594.75 RLU
RLU (cAMP, raw) (human RXFP4; Log [M] -8): 1308.71 RLU and 1324.64 RLU and 953.421 RLU and 1409.83 RLU
RLU (cAMP, raw) (human RXFP4; Log [M] -8.48): 1529.65 RLU and 1656.39 RLU and 1650.16 RLU and 1971.52 RLU
RLU (cAMP, raw) (human RXFP4; Log [M] -9): 1954.9 RLU and 1829.54 RLU and 1896.03 RLU and 2124.58 RLU
RLU (cAMP, raw) (human RXFP4; Log [M] -9.48): 2502.74 RLU and 2781.85 RLU and 2785.32 RLU and 3087.98 RLU
RLU (cAMP, raw) (human RXFP4; Log [M] -10): 2794.2 RLU and 2602.12 RLU and 2925.02 RLU and 3021.06 RLU
RLU (cAMP, raw) (human RXFP4; Log [M] -10.48): 3431.68 RLU and 3104.99 RLU and 3415.8 RLU and 3651.73 RLU
RLU (cAMP, raw) (human RXFP4; Log [M] -11): 3106.51 RLU and 3181.37 RLU and 2993.83 RLU and 2959.05 RLU
RLU (cAMP, raw) (human RXFP4; Log [M] -11.48): 3672.91 RLU and 3117.85 RLU and 3373.45 RLU and 3185.15 RLU
RLU (cAMP, raw) (human RXFP4; Log [M] -12): 3273.63 RLU and 3139.78 RLU and 2622.54 RLU and 2913.68 RLU
activation of RXFP4 (cAMP inhibition) (human RXFP4; [1]): cAMP inhibition was induced
RLU (cAMP, raw) (human RXFP3; Log [M] -6.52): 1192.27 RLU and 862.59 RLU and 949.473 RLU and 1055.99 RLU
RLU (cAMP, raw) (human RXFP3; Log [M] -7): 1047.66 RLU and 816.174 RLU and 793.561 RLU and 818.554 RLU
RLU (cAMP, raw) (human RXFP3; Log [M] -7.52): 956.019 RLU and 1042.31 RLU and 964.35 RLU and 906.626 RLU
RLU (cAMP, raw) (human RXFP3; Log [M] -8): 852.474 RLU and 715.01 RLU and 962.564 RLU and 860.21 RLU
RLU (cAMP, raw) (human RXFP3; Log [M] -8.52): 886.989 RLU and 845.333 RLU and 966.73 RLU and 845.928 RLU
RLU (cAMP, raw) (human RXFP3; Log [M] -9): 816.769 RLU and 926.264 RLU and 1003.03 RLU and 782.254 RLU
RLU (cAMP, raw) (human RXFP3; Log [M] -9.52): 998.865 RLU and 951.853 RLU and 1093.48 RLU and 960.779 RLU
RLU (cAMP, raw) (human RXFP3; Log [M] -10): 1300.57 RLU and 1261.3 RLU and 1319.62 RLU and 1454.11 RLU
RLU (cAMP, raw) (human RXFP3; Log [M] -10.52): 1602.51 RLU and 1583.63 RLU and 1833.56 RLU and 1666.69 RLU
RLU (cAMP, raw) (human RXFP3; Log [M] -11): 1772.4 RLU and 1591.93 RLU and 1761.07 RLU and 2392.31 RLU
RLU (cAMP, raw) (human RXFP3; Log [M] -11.52): 1947.57 RLU and 1934.74 RLU and 2203.54 RLU and 1701.42 RLU
RLU (cAMP, raw) (human RXFP3; Log [M] -12): 1918.12 RLU and 1736.15 RLU and 2144.65 RLU and 2026.1 RLU
activation of RXFP3 (cAMP inhibition) (human RXFP3; [1]): cAMP inhibition was induced
